Key:
sperm = experiment: Sperm progressive motility dose-response and time studies, CASA; format: cell-based, human; details: 1-10,000 μg/mL or 5-0.07 mM
[1] = tested on: sperm penetration in cervical mucus; experiment: Modified One End Test (MOET), sperm penetration in bovine cervical mucus; format: cell-based
From the text: Bovine cervical mucus was obtained from Humagen (Charlottesville, Va.) in the form of prepackaged flat capillary tubes (Penetrak®), kept frozen and thawed right prior to the experiment. The Modified One End Test (MOET) [(described in Doncel G. F., in “Barrier Contraceptives”, Wiley-Liss, Mauck C. K. et al. eds., pp. 147-162 (1994)] was used to determine the effect of compounds, such as suramin sodium described herein, on sperm penetration in cervical mucus. Each of the test compositions containing the compound to be tested were diluted in a saline solution, i.e., at 9 grams of NaCl per liter of water. Tubes of cervical mucus were broken open. The open end was placed in a container containing the test compound in saline. The test compound was allowed to diffuse for 30 minutes through the tube. A semen sample, obtained from normal healthy donors, was then diluted with a buffer solution to 60 million motile sperm per milliliter and mixed with the test compound sample (i.e., suramin sodium). The tube containing the test compound sample was then re-inserted into the container containing the mixed solution and stored in an incubator at 37° C. in an atmosphere of 5 percent carbon dioxide in air for 60 minutes. The container and tube were then removed from the incubator and the tube was visually analyzed under a microscope for the migration of motile vanguard sperm through the tube. The results are expressed as percentage of migration as compared to control samples. In the control samples, the tubes were incubated with saline containing no compound. […]

Row | Compound | sperm progressive motility and membrane integrity vs solvent control (sperm) | MOET % CTL ([1]; 30 ug/ml) [% CTL] | blocking of sperm penetration ([1]; 300 μg/mL (0.03%)) | MOET % CTL ([1]; 300 ug/ml) [% CTL] | MOET % CTL ([1]; 6.25 mg/ml) [% CTL] | MOET % CTL ([1]; 12.5 mg/ml) [% CTL] | MOET % CTL ([1]; 25 mg/ml) [% CTL] | inhibition of sperm penetration in MOET ([1]; 50 mg/mL (5%)) | MOET % CTL ([1]; 50 mg/ml) [% CTL]
1 | CCCCCCCCCc1ccc(OCCOCCOCCOCCOCCOCCOCCOCCOCCO)cc1 [N-9, α-(4-Nonylphenyl)-ω-hydroxynona(oxyethylene)] | displayed its known sperm-immobilizing effects | 48.6 ± 6.9 | completely blocked sperm penetration | 0.7 ± 0.5 | – | – | – | – | –
2 | Dextran Sulfate | – | – | – | – | 93.7 ± 1.7 | 82.4 ± 5.2 | 86.8 ± 4.4 | more inhibition than suramin sodium | 56.6 ± 8.9

Reference: patent publication US8552064B2, “Suramin and derivatives thereof as topical microbicide and contraceptive” (Eastern Virginia Medical School, priority 2005, dated 2013)
